Drawing on patent US20070116784A1, “Imatinib combinations for head and neck cancers” (priority 2003, published 2007), this text covers IC50 for ten compounds.

Where two headings read alike, the source gives them in different places.

The subject of one test is DOK. Description: Growth inhibition assay (SRB). The class given is cell-based.
Another test has as its system HN3 ACC primary culture. Description: cells. It counts as cell-based, human.
A further test relates to HN1 ACC primary culture. In words: cells. The class given is cell-based, human.
The subject of another test is HN5 ACC primary culture. In words: Growth inhibition assay (SRB). The class given is cell-based, human.
In the next test the test system is FaDu. In words: Growth inhibition assay (SRB). It counts as cell-based, human.
Another test relates to Cal27. In words: Growth inhibition assay (SRB). The class given is cell-based, human.

In general, IC50 refers to the concentration needed to halve the response being measured.

Experimental for Cal27: (§1) Cell lines are sub-cultured weekly and routinely screened for mycoplasma contamination.
(§2) The cells are fixed with 100 μl of pre-chilled 10% trichloroacetic acid after removal of the medium. The plates are then chilled at 4° C. for 1 h. Following this, the plates are washed twice with water and stained with 50 μl of 0.4% SRB in 1% acetic acid for 10 min at room temperature. The unbound dye is removed and the plates are washed in 1% acetic acid to further remove unbound dye. […] Growth inhibition curves are plotted and IC50 values determined.
Experimental for DOK: as §1, §2
Experimental for FaDu: as §1, §2

In the case of `CO[C@@]12[C@H](COC(N)=O)C3=C(C(=O)C(C)=C(N)C3=O)N1C[C@@H]1N[C@@H]12` [MMC, mitomycin C], the half-inhibitory concentration (IC50) with DOK (DOK, 5-7 days, read-out: IC50) is 0.06 µM; in the test with HN3 ACC primary culture (read-out: IC50), 1.16 µM; with HN1 ACC primary culture (read-out: IC50), 1.75 µM.

In the case of `O=c1[nH]cc(F)c(=O)[nH]1` [Compound 5FU, 5 fluorouracil], the half-maximal inhibitory concentration (IC50) was determined as 22 µM in the test with DOK (DOK, 5-7 days, read-out: IC50) and 4.8 µM with HN1 ACC primary culture (Homo sapiens).

For the compound `N[C@@H](Cc1ccc(N(CCCl)CCCl)cc1)C(=O)O` [Mel, melphalan], the IC50 in the test with DOK (DOK, 5-7 days, read-out: IC50) came out at 111 µM; in the test on HN5 ACC primary culture (Homo sapiens) it was 7.3 µM; in the test on HN3 ACC primary culture (Homo sapiens), 27.5 µM; in the test on HN1 ACC primary culture (Homo sapiens) it was 66.6 µM.

`CC[C@]1(O)C[C@@H]2CN(CCc3c([nH]c4ccccc34)[C@@](C(=O)OC)(c3cc4c(cc3OC)N(C)[C@H]3[C@@](O)(C(=O)OC)[C@H](OC(C)=O)[C@]5(CC)C=CCN6CC[C@]43[C@@H]65)C2)C1` [VBL, vinblastin]: the IC50 with DOK (DOK, 5-7 days) worked out at 0.3 ng/mL; in the test with HN3 ACC primary culture, 0.9 ng/mL; in the test with HN1 ACC primary culture, 1.3 ng/mL.

As to `Nc1ccn([C@@H]2O[C@H](CO)[C@@H](O)C2(F)F)c(=O)n1` [Gem, gemcitabine], the concentration for half-maximal inhibition (IC50) in the test with DOK (DOK, 5-7 days, read-out: IC50) turned out to be 0.00706 µM; in the test on HN1 ACC primary culture (Homo sapiens), 0.00195 µM.

As to `COc1cccc2c1C(=O)c1c(O)c3c(c(O)c1C2=O)C[C@@](O)(C(=O)CO)C[C@@H]3O[C@H]1C[C@H](N)[C@H](O)[C@H](C)O1` [Adr], the IC50 in the test on DOK (DOK, 5-7 days, read-out: IC50) was found to be 0.02 µM; with HN3 ACC primary culture (read-out: IC50) it was 0.06 µM.

With `CC(=O)O[C@H]1C(=O)[C@@]2(C)[C@H]([C@H](OC(=O)c3ccccc3)[C@]3(O)C[C@H](OC(=O)[C@H](O)[C@@H](NC(=O)c4ccccc4)c4ccccc4)C(C)=C1C3(C)C)[C@]1(OC(C)=O)CO[C@@H]1C[C@@H]2O` [Taxol, 5(beta),20-Epoxy-1,2(alpha),4,7(beta), 10(beta), b 13(alpha)-hexahydroxytax-11-en-9-one4,10-diacetate 2-benzoate 13-ester with (2R ,3S )-N-benzoyl-3-phenylisoserine], the IC50 was 2.7 ng/mL in the test on DOK (DOK, 5-7 days, read-out: IC50); 6.1 ng/mL in the test with HN3 ACC primary culture (Homo sapiens); 6.1 ng/mL in the test on HN1 ACC primary culture (Homo sapiens).

On to `COc1ccc(/C=C\c2cc(OC)c(OC)c(OC)c2)cc1O` [Ca4, combrestatin], for which the IC50 is 0.00369 µM in the test on FaDu; 0.00332 µM in the test on DOK (read-out: IC50); 0.00306 µM with HN5 ACC primary culture (read-out: IC50); 0.00146 µM with Cal27; above 0.02 µM in the test on HN1 ACC primary culture (read-out: IC50).

For the compound `CC1=C(N2CC2)C(=O)C(CO)=C(N2CC2)C1=O` [RH1], the IC50 in the test with FaDu amounted to 0.00134 µM; in the test on DOK (read-out: IC50), 0.00033 µM; with HN5 ACC primary culture (read-out: IC50), 0.00087 µM; in the test with Cal27, 0.00011 µM; with HN3 ACC primary culture (read-out: IC50) it was 0.00086 µM; with HN1 ACC primary culture (read-out: IC50), 0.00711 µM.

With `N.N.[Cl][Pt][Cl]` [Cisp, cisplatin], the IC50 in the test with DOK (DOK, 5-7 days, read-out: IC50) stood at 3.7 µM; in the test on HN3 ACC primary culture (read-out: IC50), 2.8 µM; in the test on HN1 ACC primary culture (read-out: IC50), 5 µM.
